From patent US8232299B2, “Phthalimide derivatives that influence cellular vesicular systems, pharmaceutical compositions, and use thereof” (Avidin Kft., priority 2007, dated 2012)

How the values were obtained:
[1] = tested on: human leukemia cells (K562); assay: leukemia survival model, K562 cells i.v.; type: in vivo, CB17/scid mice; conditions: 100 mg/kg p.o., once a day five days per week for 3 weeks from day 4; FIG. 10
Procedure: 2×10^6 human leukemia cells (K562) from in vitro cultures were injected intravenously (i.v.) into partially narcotized (diethylether narcosis) adult male CB17/scid mice, born with immunodeficiency. After tumor cell inoculation animals were randomly assigned into two groups and their ears were marked. From the 4th day after the tumor cell inoculation mice were treated once a day five days per week for 3 weeks with compound 9a (100 mg/kg), per os (p.o.) by gavage. Control animals were treated with appropriate dilution of the carrier (DMSO) similarly to the treated group with similar frequency. Body weight changes were monitored once a week for each animal according to the ear marks. Evaluation of the effect of the compound was based on the survival of the animals. Results are shown on FIG. 10.

[2] = tested on: MCF7 (Human breast adenocarcinoma); assay: cytotoxic effect on breast carcinoma cell line, MTS test, 24 hours; type: cell-based; conditions: 24 hours incubation
Procedure: (§1) In these experiments HepG2 (human hepatocellular carcinoma) and MCF7 (Human breast adenocarcinoma) cells were used. They were cultured in the following media: For HepG2 Dulbecco's Modified Eagle Medium (D-MEM) (high glucose) (Gibco BRL, Carlsbad, Calif., USA), penicillin (50 IU/ml)-streptomycin ([…]), 10% fetal bovine serum; for MCF7 (Human breast adenocarcinoma) 1:1 mixture of Dulbecco's Modified Eagle Medium (D-MEM) (high glucose) (Gibco BRL, Carlsbad, Calif., USA) and Nutrient Mixture F-12 Ham (Sigma, St. Louis, Mo., USA), penicillin (50 IU/ml)-streptomycin ([…]), 10% fetal bovine serum. Experiments were performed as described in Example 9. with the difference that the incubation time was 24 hours in this case. After the incubation period MTS test (3-(4,5-dimethylthiazol-2-yl)-5-(3-carboxymethoxyphenyl)-2-(4-sulfophenyl)-2H-tetrazolium) (Promega, Madison, Wis., USA) was performed as described above.

TNFα = assay: late phase (transcriptionally induced) TNFα secretion of macrophages, ELISA; type: cell-based, mice; conditions: preformed TNFα washed away after 4 hours, TNFα of next 4 hours; FIG. 3
Procedure: For the detection of late phase TNFα secretion the preformed TNFα, released after LPS induction of the macrophages, was washed away after 4 hours, and the amount of TNFα produced during the next 4 hours was determined by ELISA test. […] Results are depicted in FIG. 3.

[3] = tested on: RVH human melanoma cell line; assay: cytotoxic effect on melanoma cell line, MTS assay, 48 hours; type: cell-based; conditions: 48 hours treatment, FIG. 4; for effect on RVH melanoma cells: even at 100 μM concentration
Procedure: RVH human melanoma cell line was cultured in Minimum Essential Medium Eagle (Sigma, St. Louis, Mo., USA), Na-piruvate, Glutamine, Non-essential amino acids, penicillin (50 IU/ml)-streptomycin ([…]), 10% fetal bovine serum at 37° C., in 5% CO2. Cells were trypsinized with trypsin/EDTA (Sigma-Aldrich, St. Louis, Mo.) on every second day and were passed into 60 or 100 mm plates. When the culture reached the required cell number (approx. 10^6) for the planned experiment 50.00 cell/well was plated into 24 well plates (Costar® 24 Well TC-Treated Microplates) and left overnight to adhere to the bottom of the well. Addition of the substance was performed the following way: next day the culture media was drawn from the adhered cells and media comprising compounds of the present invention in appropriate concentration and well mixed therein was pipetted (2 ml/well) onto the cells. The substance to be examined was diluted in 100% DMSO, this way an amount of DMSO corresponding to the highest concentration of the substance in a given assay were measured in the media of the control wells. After 48 hours of treatment live cells were detected by CellTiter® 96 Aqueous Non-radioactive Cell Proliferation Assay (Promega, Madison, Wis., USA) to determine the number of live cells in the treated and in the control samples.
MTS is converted to formazane in the living cells, which product is dissolved in the media, and its quantity/absorbance can be measured at 490 nm. […] Then, for the determination of the ratio of live cells 20 μl MTS and 1 μl PMS are added to 100 μl media. The enzyme reaction occurs at incubation at 37° C., 5% CO2 for 1 to 4 hours. Formazane produced by the cells is read on ELISA plate reader, from which the number of living cells can be obtained indirectly. Since the inventors performed the experiments in 24 well plates with 50.000 cell/well, the protocol had to be modified. After treatment of the cells for an appropriate time (type of compound, different concentrations), the incubation media (2 ml) containing the examined substance was removed, then 400 μl media containing reagents in the same concentration as given above (333.3 μl media, 66.6 μl MTS, and 3.3 μl PMS per well) was pipetted to the cells. To be able to use ELISA plate reader (Multiskan R C, Thermo Labsystems, Franklin, Mass., USA) 400 μl sample from each single well of the 24 well plate was pipetted into four wells of a 96 well plate (Micromethod plates 96 wells flat form) in 100 μl aliquots. That also helped to eliminate possible errors due to inconsistent pipetting. On each 24 well plate 4 wells were control samples. From these 3 times 100 μl was pipetted onto the 96 well plates, so, altogether 12 controls were provided on each 96 well plate. The remaining 4 wells were for background measurements with 100 μl media containing MTS and PMS as described above.

Mycobacterium avis = assay: inhibition of Mycobacterium avis in THP-1 macrophage culture; type: cell-based; conditions: 36 mg/l, THP-1 human macrophage cells; FIG. 11
Procedure: In this experiment the effects of compound 3a were analyzed: the inhibition of Mycobacterium avis in macrophage culture was investigated. Human macrophage cells (THP-1) were infected by Mycobacterium avis under in vitro conditions, subsequently treated (compound 3a: 36 mg/l) and untreated cells were harvested after different periods of time and the number of the living Mycobacterium avis bacteria were determined.

[4] = tested on: HepG2 (human hepatocellular carcinoma); assay: cytotoxic effect on hepatocellular carcinoma cell line, MTS test, 24 hours; type: cell-based; conditions: 24 hours incubation
Procedure: as §1

[5] = tested on: RAW.264.7 matured mice macrophages; assay: MTS test of vitality / metabolic activity of the macrophages; type: cell-based
Procedure: In our experiments we investigated the early TNFα secretion of RAW.264.7 matured mice macrophages. This cell line stores large amount of preformed TNFα. […] Culture supernatant was collected and TNFα content was determined by R&D Duoset ELISA kit (detection limit<62.5 pg/ml). […] So the reduced TNFα level was due to inhibition of the release of preformed TNFα and not due to dying of the cells.
Effects of compound 3a and compound 3b on TNFα secretion and on NF-kappaB activation could have been based on cytotoxicity as well. To exclude that, we determined the metabolic activity of the cells, which is proportional to the cell number, by MTS test 8 hours after the treatment.

Rab GTPase proteins = assay: affinity chromatography of MCF-7 protein fraction with LC-MS/MS; type: binding, human; conditions: compound linked to Sepharose beads, 2 M NaCl eluate
Procedure: By using affinity chromatography we investigated which are the proteins that bind compound 5b of the invention. Compound 5b was linked to cyanobromide activated Sepharose (Amersham-Pharmacia, Sepharose 4B) beads in 6:4 DMF:water mixture for 16 hours at room temperature. 1 ml of the beads was washed with 50 ml 6:4 DMF:water mixture, and then with 50 ml 70% ethanol, then with PBS (0.01 M phosphate buffer, 0.0027 M KCl, 0.137 M NaCl, pH: 7.4). After washing the column 5 ml protein fraction of human MCF-7 breast carcinoma cells (10 million cells homogenized with Complete, Protease Inhibitor Cocktail Tablets, Roche Diagnostics GmbH) were applied onto the column. The column was washed with 20 ml 0.2 M NaCl—PBS solution, then with 15 ml 0.5 M NaCl—PBS solution and with 15 ml 0.8 M NaCl—PBS solution, then it was eluted by 2 ml 2 M NaCl—PBS. The eluate was analyzed by mass spectrometry (LC-MS/MS) to determine the proteins binding to compound 5b.
Mass spectrometry analysis was performed according to the protocol published at http://donatello.ucsf.edu/ingel.html at the time of drafting the patent application.
For the LC-MS/MS analysis 5 μl sample was injected. For the LC precolumn trap was applied: 5 min 20 μl 0.1% trifluoroacetic acid/water, then gradient elution for MS/MS analysis. Columns: Zorbax 300SB-C18, 5 μm, 5×0.3 mm; Zorbax 300SB-C18, 3.5 μm, 150×0.075 mm. […]

[6] = in the concentration range tested
[7] = already at 20 and 50 μM concentrations

Row | SMILES | effect on MCF7 cells [2, 7] | inhibition of RVH melanoma cells (cytotoxic effect) [3] | inhibition of MCF7 cells (cytotoxic effect) [2] | inhibition of HepG2 cells (cytotoxic effect) [4] | also measured
1 | CC(C)c1cccc(C(C)C)c1N1C(=O)c2c(F)c(F)c(F)c(NC3CCCC3)c2C1=O [Compound 9a, 2-(2,6-diisopropylphenyl)-4-(cyclopentylamino)-5,6,7-trifluoroisoindoline-1,3-dione] |  |  |  |  | survival of the animals [1]: significant increase of the survival
2 | CCNc1c(F)c(F)c(F)c2c1C(=O)N(c1c(C(C)C)cccc1C(C)C)C2=O [Compound 3a, 2-(2,6-diisopropylphenyl)-4-(ethylamino)-5,6,7-trifluoroisoindole-1,3-dione] |  |  |  |  | effect on MCF7 cells [2, 6]: weak effect; late TNFα secretion of macrophages (TNFα): inhibited late TNFα secretion of macrophages in a concentration dependent way; effect on RVH melanoma cells [3]: weak effect; number of divided (living) bacteria versus untreated group (Mycobacterium avis): significantly smaller; effect on HepG2 cells [4, 6]: weak effect; vitality of the cells (MTS test) ([5]; 3 hours after the stimulation with LPS): no cell death was detected; metabolic activity of the cells (MTS test) ([5]; 8 hours after the treatment): not found to be toxic
3 | CC(C)c1cccc(C(C)C)c1N1C(=O)c2c(F)c(F)c(F)c(NCCN)c2C1=O [Compound 5a, 2-(2,6-diisopropylphenyl)-4-(2-amino-ethylamino)-5,6,7-trifluoroisoindole-1,3-dione] | strong effect | strongest inhibition |  |  | effect on HepG2 cells [4, 6]: weak effect
4 | CC(C)c1cccc(C(C)C)c1N1C(=O)c2c(F)c(F)c(NCc3cccnc3)c(F)c2C1=O [Compound 4b] | strong effect | strongest inhibition |  |  | effect on HepG2 cells [4, 7]: strong effect
5 | CC(C)c1cccc(C(C)C)c1N1C(=O)c2c(F)c(F)c(F)c(NCC(F)(F)F)c2C1=O [Compound 6a, 2-(2,6-diisopropylphenyl)-4,5,6-trifluoro-7-(2,2,2-trifluoroethylamino)isoindole-1,3-dione] |  | strongest inhibition | strongest inhibition | strongest inhibition | 
6 | CC(C)c1cccc(C(C)C)c1N1C(=O)c2c(F)c(F)c(F)c(NCc3cccnc3)c2C1=O [Compound 4a] |  | strongest inhibition | strongest inhibition | strongest inhibition | 
7 | CC(C)c1cccc(C(C)C)c1N1C(=O)c2c(F)c(F)c(NCCCN3CCOCC3)c(F)c2C1=O [Compound 7b, 2-(2,6-diisopropylphenyl)-5-(3-morpholino-4-yl-propylamino)-4,6,7-trifluoroisoindole-1,3-dione] | strong effect | strongest inhibition |  | strongest inhibition | effect on HepG2 cells [4, 7]: strong effect
8 | CC(C)c1cccc(C(C)C)c1N1C(=O)c2c(F)c(F)c(F)c(NCCCN3CCOCC3)c2C1=O [Compound 7a, 2-(2,6-diisopropylphenyl)-4-(3-morpholino-4-yl-propylamino)-5,6,7-trifluoroisoindole-1,3-dione] |  |  | strongest inhibition | strongest inhibition | 
9 | CC(C)c1cccc(C(C)C)c1N1C(=O)c2c(F)c(F)c(NCCN)c(F)c2C1=O [Compound 5b, 2-(2,6-diisopropylphenyl)-5-(2-amino-ethylamino)-4,6,7-trifluoroisoindole-1,3-dione] |  |  |  |  | effect on RVH melanoma cells [3]: weak effect; proteins binding to the compound (Rab GTPase proteins): interactions with Rab GTPase proteins were identified
